Reference: US9682967B2

How the values were obtained:
[1] = molecular target: human sortilin (HEK 293 / S-18 cells) (Homo sapiens (Human), UniProt Q99523); assay: Cellomics progranulin assay (PGRN binding/endocytosis, staining intensity); type: cell-based; conditions: compounds 30 min, then PGRN 60 min
Experimental: Cellomics Progranulin Assay
Transfected HEK 293 cells (with control or sortilin expression plasmids) or stable HEK293 cells expressing human sortilin (S-18) were used in this assay. Cells are trypsinized and plated in 96 well plates. In the case of transiently transfected cells, they were plated 24 hrs after transfection in 96 well plates. Next day, media was changed completely and test compounds added to cells for 30 min. followed by PGRN for 60 min. At the end of the study (after 1.5 hrs), the cells were fixed and stained for sortilin and progranulin. All stained plates were analyzed by Cellomics Array Scan (Thermo Fischer) and average staining intensity for PGRN and sortilin are calculated per cell in each well.

mSortilin = mSortilin (Mus musculus (Mouse), UniProt Q6PHU5); assay: mSortilin affinity assay (displacement of 3H-neurotensin, SPA); type: binding
Experimental: Mouse his-Sortilin was purchased from R&D Systems.
The Sortilin assay was performed in total volume of 40 ul in 50 mM HEPES pH 7.4 assay buffer containing 100 mM NaCl, 2.0 mM CaCl2, 0.1% BSA and 0.1% Tween-20. Varying concentration of compounds where pre-incubated for 30 min at RT with 50 nM of 6his-Sortilin. […] Ni chelate imaging beads (Perkin elmer) was added and the plate was slowly shacked in the dark for 60 min. The imaging beads were allowed minimum 6 hours settling time before the plate was read on a ViewLux with 360 sec exposure time. Dose-response evaluation of compounds was performed with 10 concentrations of drugs (covering 3 decades). IC50 values were calculated by nonlinear regression using the sigmoid concentration-response (variable slope) using Xlfit 4 (IDBS, UK). The results were given as Ki values (nM) derived from computer fitted IC50 values converted to Ki values using the Cheng-Prusoff equation (Ki=IC50/(1+(L/Kd))).

[2] = molecular target: human sortilin (S-18 cells) (Homo sapiens (Human), UniProt Q99523); assay: Endogenous PGRN endocytosis assay (PGRN ELISA of media); type: cell-based; conditions: for PGRN levels in cell culture media (FIG. 1): PGRN allowed to accumulate 24 hrs, then compounds for further 24 hrs
hSortilin = hSortilin (Homo sapiens (Human), UniProt Q99523); assay: hSortilin affinity assay (displacement of 3H-neurotensin, SPA); type: binding; conditions: for IC50: [3H]-Neurotensin 5 nM, 150 nM 6his-Sortilin, read-out: hSortilin NTS Binding IC50; for Ki: from IC50 by Cheng-Prusoff, Kd neurotensin 100 nM
Chain of hSortilin (Q99523 34-755): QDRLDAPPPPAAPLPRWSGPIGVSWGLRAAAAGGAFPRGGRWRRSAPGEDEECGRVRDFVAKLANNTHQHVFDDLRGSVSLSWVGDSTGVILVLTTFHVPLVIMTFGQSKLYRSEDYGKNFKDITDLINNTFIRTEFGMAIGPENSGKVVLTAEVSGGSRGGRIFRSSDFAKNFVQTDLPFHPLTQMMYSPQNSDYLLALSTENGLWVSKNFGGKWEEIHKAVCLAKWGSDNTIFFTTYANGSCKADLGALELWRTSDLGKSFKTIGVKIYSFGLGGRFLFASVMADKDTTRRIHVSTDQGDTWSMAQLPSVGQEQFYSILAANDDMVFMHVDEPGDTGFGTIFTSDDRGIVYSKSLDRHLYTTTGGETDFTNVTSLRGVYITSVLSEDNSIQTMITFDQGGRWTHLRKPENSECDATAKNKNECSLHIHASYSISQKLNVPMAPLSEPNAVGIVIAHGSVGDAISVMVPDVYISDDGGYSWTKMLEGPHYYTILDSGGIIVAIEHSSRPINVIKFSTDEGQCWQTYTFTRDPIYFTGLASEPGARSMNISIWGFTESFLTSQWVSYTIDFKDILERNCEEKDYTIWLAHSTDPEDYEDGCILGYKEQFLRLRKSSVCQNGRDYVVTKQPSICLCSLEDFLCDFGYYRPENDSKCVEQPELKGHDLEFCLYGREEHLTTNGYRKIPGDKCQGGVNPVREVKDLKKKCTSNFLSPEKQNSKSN

Chain of human sortilin (S-18 cells) (Q99523 78-831): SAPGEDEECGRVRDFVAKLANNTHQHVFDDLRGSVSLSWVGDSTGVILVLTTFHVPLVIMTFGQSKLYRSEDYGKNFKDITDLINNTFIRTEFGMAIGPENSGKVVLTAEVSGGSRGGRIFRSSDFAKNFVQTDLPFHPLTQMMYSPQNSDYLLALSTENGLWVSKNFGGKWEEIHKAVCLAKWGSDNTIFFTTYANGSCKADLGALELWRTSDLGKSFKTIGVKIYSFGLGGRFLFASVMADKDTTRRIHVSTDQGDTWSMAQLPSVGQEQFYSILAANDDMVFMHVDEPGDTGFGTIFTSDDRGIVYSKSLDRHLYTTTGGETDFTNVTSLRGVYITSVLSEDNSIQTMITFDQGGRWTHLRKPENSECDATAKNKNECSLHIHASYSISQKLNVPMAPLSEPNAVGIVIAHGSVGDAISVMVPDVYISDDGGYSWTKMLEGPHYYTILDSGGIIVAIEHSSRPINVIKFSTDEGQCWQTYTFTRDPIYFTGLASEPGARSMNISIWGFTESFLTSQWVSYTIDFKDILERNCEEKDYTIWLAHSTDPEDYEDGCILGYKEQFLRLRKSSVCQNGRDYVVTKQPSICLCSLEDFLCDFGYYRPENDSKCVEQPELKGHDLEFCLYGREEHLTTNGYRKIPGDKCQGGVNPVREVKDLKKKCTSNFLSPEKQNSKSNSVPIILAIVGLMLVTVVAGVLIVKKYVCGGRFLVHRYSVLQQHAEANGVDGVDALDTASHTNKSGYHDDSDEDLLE
Chain of mSortilin (Q6PHU5 74-825): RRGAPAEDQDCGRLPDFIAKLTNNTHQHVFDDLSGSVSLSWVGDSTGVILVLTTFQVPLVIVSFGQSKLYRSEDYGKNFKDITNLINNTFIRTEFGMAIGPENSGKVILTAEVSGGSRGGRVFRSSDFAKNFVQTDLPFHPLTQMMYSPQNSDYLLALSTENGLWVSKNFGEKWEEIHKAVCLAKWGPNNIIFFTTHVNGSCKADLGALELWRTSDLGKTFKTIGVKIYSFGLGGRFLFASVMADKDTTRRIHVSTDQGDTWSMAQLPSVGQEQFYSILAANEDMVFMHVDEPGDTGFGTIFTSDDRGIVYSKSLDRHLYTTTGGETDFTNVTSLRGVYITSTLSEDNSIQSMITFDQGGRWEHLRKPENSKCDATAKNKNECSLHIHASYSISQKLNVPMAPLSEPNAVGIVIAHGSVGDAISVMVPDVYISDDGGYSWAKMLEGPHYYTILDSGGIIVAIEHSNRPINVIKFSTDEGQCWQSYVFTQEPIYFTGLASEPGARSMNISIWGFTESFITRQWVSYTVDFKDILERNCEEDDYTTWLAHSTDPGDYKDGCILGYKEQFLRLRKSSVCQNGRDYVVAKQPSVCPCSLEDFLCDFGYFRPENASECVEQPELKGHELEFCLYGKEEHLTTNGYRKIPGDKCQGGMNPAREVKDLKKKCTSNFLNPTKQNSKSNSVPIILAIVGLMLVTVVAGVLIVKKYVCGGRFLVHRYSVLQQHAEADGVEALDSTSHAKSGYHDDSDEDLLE
Chain of human sortilin (HEK 293 / S-18 cells) (Q99523 78-831): as the sequence (Q99523 78-831) above

Compound	IC50 (hSortilin)	Ki (hSortilin)	also measured
Cc1cccc(NC(=O)c2ccc(C(F)(F)F)cc2C(=O)O)n1 [Example 1, N-(6-Methyl-pyridin-2-yl)-5-trifluoromethyl-phthalamic acid]			PGRN fluorescence intensity / binding or endocytosis of PGRN to sortilin expressing cells (FIG. 2) [1]: blocks binding or endocytosis of PGRN; IC50 (mSortilin; [3H]-Neurotensin 5 nM, 50 nM 6his-Sortilin, read-out: mSortilin NTS Binding IC50): 220 nM; Ki (mSortilin; from IC50 by Cheng-Prusoff): 210 nM; increase in PGRN in cell culture media as compared to control wells ([2]; 10 uM, media collected on day 3): 85-100%; PGRN levels in cell culture media (FIG. 1) [2]: increase in PGRN levels
O=C(O)c1cc(C(F)(F)F)ccc1C(=O)NCc1cccnc1 [Example 40, N-Pyridin-3-ylmethyl-5-trifluoromethyl-phthalamic acid]	4800 nM	4570 nM	
CCCc1ccc(C(=O)Nc2cccc(C)n2)c(C(=O)O)c1 [Example 41, N-(6-Methyl-pyridin-2-yl)-5-propyl-phthalamic acid]	3600 nM	3430 nM	
C=C(C)c1ccc(C(=O)Nc2cccc(C)n2)c(C(=O)O)c1 [Example 42, N 5-Isopropenyl-N-(6-methyl-pyridin-2-yl)-phthalamic acid]	5200 nM	4950 nM	
Cc1cccc(NC(=O)c2ccc(C(C)C)cc2C(=O)O)n1 [Example 43, N 5-Isopropyl-N-(6-methyl-pyridin-2-yl)-phthalamic acid]	1100 nM	1050 nM	
Cc1cccc(NC(=O)c2cc(C(F)(F)F)c(C(F)(F)F)cc2C(=O)O)n1 [Example 47, 2-((6-methylpyridin-2-yl)carbamoyl)-4,5-bis(trifluoromethyl)benzoic acid]	1200 nM	1140 nM	
O=C(O)c1cc(C(F)(F)F)c(C(F)(F)F)cc1C(=O)Nc1ccc2c(n1)CCCC2 [Example 48, 2-((5,6,7,8-tetrahydroquinolin-2-yl)carbamoyl)-4,5-bis(trifluoromethyl)benzoic acid]	760 nM	721 nM	
scrambled neurotensin: scrambled neurotensin, sequence LIYPRNEYELRKP (SEQ ID NO:1); negative control (Scrambled Human Neurotensin) [reference compound]			PGRN fluorescence intensity / binding or endocytosis of PGRN to sortilin expressing cells (FIG. 2) [1]: significantly increased; PGRN levels in cell culture media (FIG. 1) [2]: did not have any effect

Continued, in another order:

IC50 (hSortilin)	Ki (hSortilin)	Compound	also measured
300 nM	286 nM	Cc1nccc(NC(=O)c2ccc(C(F)(F)F)cc2C(=O)O)n1 [Example 44, 2-((2-methylpyrimidin-4-yl)carbamoyl)-5-(trifluoromethyl)benzoic acid]	
200 nM	190 nM	Cc1cnc(NC(=O)c2ccc(C(F)(F)F)cc2C(=O)O)nc1C [Example 45, 2-((4,5-dimethylpyrimidin-2-yl)carbamoyl)-5-(trifluoromethyl)benzoic acid]	
88 nM	84 nM	O=C(O)c1cc(C(F)(F)F)ccc1C(=O)Nc1ccc2c(n1)CCCC2 [Example 46, 2-((5,6,7,8-tetrahydroquinolin-2-yl)carbamoyl)-5-(trifluoromethyl)benzoic acid]	
750 nM	734 nM	Cc1ccc(NC(=O)c2cc(C(F)(F)F)c(C(F)(F)F)cc2C(=O)O)nc1C [Example 49, 2-((5,6-dimethylpyridin-2-yl)carbamoyl)-4,5-bis(trifluoromethyl)benzoic acid]	
620 nM	599 nM	Cc1nccc(NC(=O)c2cc(C(F)(F)F)c(C(F)(F)F)cc2C(=O)O)n1 [Example 50, 2-((2-methylpyrimidin-4-yl)carbamoyl)-4,5-bis(trifluoromethyl)benzoic acid]	
640 nM	614 nM	Cc1cc(NC(=O)c2ccc(C(F)(F)F)cc2C(=O)O)cc(C)n1 [Example 51, 2-((2,6-dimethylpyridin-4-yl)carbamoyl)-5-(trifluoromethyl)benzoic acid]	
